Results reported in ChEMBL document CHEMBL4190212, “Synthesis, antiprotozoal activity, and chemoinformatic analysis of 2-(methylthio)-1H-benzimidazole-5-carboxamide derivatives: Identification of new selective giardicidal and trichomonicidal compounds” (Eur J Med Chem, 2017).

Key:
[1] = system: Entamoeba histolytica; experiment: Antiparasitic activity against trophozoite stage of Entamoeba histolytica HM-1:IMSS after 48 hrs by haemocytometric method; assay type: functional, organism-based
[2] = system: Trichomonas vaginalis; experiment: Antiparasitic activity against trophozoite stage of Trichomonas vaginalis CNCD 147 after 48 hrs; assay type: functional, organism-based; details: CNCD 147, 48 h
[3] = system: Giardia intestinalis; experiment: Antiparasitic activity against trophozoite stage of Giardia intestinalis IMSS:0989:1 after 48 hrs; assay type: functional, organism-based; details: Giardia duodenalis, IMSS:0989:1, 48 h
[4] = system: Entamoeba histolytica; experiment: Antiparasitic activity against trophozoite stage of Entamoeba histolytica HM-1:IMSS after 48 hrs; assay type: functional, organism-based
[5] = system: Entamoeba histolytica; experiment: Potency index, ratio of metronidazole IC50 to test compound IC50 for trophozoite stage of Entamoeba histolytica HM-1:IMSS; assay type: functional
[6] = system: Giardia intestinalis; experiment: Potency index, ratio of metronidazole IC50 to test compound IC50 for trophozoite stage of Giardia intestinalis IMSS:0989:1; assay type: functional, Giardia duodenalis

Row | IC50 [1] [nM] | IC50 [2] [nM] | IC50 [3] [nM] | IC50 [4] [nM] | Compound | Ratio IC50 [5] | Ratio IC50 [6]
1 |  | 28.8 | 15.8 | 41.8 | CSc1nc2cc(C(=O)Nc3cccc(C)n3)c(Cl)cc2n1C |  | 
2 |  | 111 | 135 | 81.3 | CSc1nc2cc(C(=O)Nc3cccc(C)n3)c(Cl)cc2[nH]1 |  | 
3 |  | 67.6 | 77 | 44 | CSc1nc2cc(C(=O)Nc3ccccn3)c(Cl)cc2[nH]1 |  | 
4 |  | 515 | 250 | 120 | CSc1nc2cc(C(=O)Nc3cccc(C)c3)c(Cl)cc2[nH]1 |  | 
5 |  | 128 | 454 | 36.9 | CSc1nc2cc(C(=O)Nc3cccc(Cl)n3)c(Cl)cc2[nH]1 |  | 

Further lines, the compound ahead of its results:

Row | Compound | IC50 [1] [nM] | IC50 [2] [nM] | IC50 [3] [nM] | IC50 [4] [nM] | Ratio IC50 [5] | Ratio IC50 [6]
6 | O=[N+]([O-])c1cc2nc(C(F)(F)F)[nH]c2cc1[N+](=O)[O-] | 1550 |  |  |  |  | 
7 | FC(F)(F)C(F)(F)c1nc2c(Br)c(Br)c(Br)c(Br)c2[nH]1 | 229 |  |  |  |  | 
8 | FC(F)(F)c1nc2c(Br)c(Br)c(Br)cc2[nH]1 | 13800 |  |  |  |  | 
9 | FC(F)(F)c1nc2cc(Br)c(Br)cc2[nH]1 | 437 |  |  |  |  | 
10 | CSc1nc2cc(C(=O)Nc3ccc([N+](=O)[O-])cn3)c(Cl)cc2n1C |  | 41 | 7.9 | 9.2 | 41 | 155
11 | CSc1nc2cc(C(=O)Nc3ccccc3)c(Cl)cc2[nH]1 |  | 120 | 72.5 | 52 |  | 
12 | CSc1nc2cc(C(=O)Nc3ccccn3)c(Cl)cc2n1C |  | 12 | 346 | 34.5 |  | 
13 | CSc1nc2cc(C(=O)NNC(=O)OC(C)(C)C)c(Cl)cc2n1C |  | 28.3 | 56.6 | 48.5 |  | 
14 | CSc1nc2cc(C(=O)Nc3cccc(Cl)c3)c(Cl)cc2[nH]1 |  | 162 | 1110 | 51 |  | 
15 | CSc1nc2cc(C(=O)Nc3cccc(Cl)n3)c(Cl)cc2n1C |  | 368 | 12.2 | 40.8 |  | 
16 | CSc1nc2cc(C(=O)N/N=C/c3ccc([N+](=O)[O-])o3)c(Cl)cc2n1C |  | 13.2 | 29.2 | 26.6 |  | 
